Measured values taken from PubChem BioAssay (NCI).
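Each compound was tested at five concentrations against cells in 96-well plates for 48 hours. Here, GI50 denotes the concentration required for 50% inhibition of growth. TGI: total growth inhibition.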

How the values were obtained:
Experiment in all cases: growth of human tumour cells (NCI), 48 h
RPMI-8226 leukemia = test system: RPMI-8226 leukemia
MDA-MB-435 = test system: MDA-MB-435
A549 NSCLC = test system: A549 NSCLC
COLO 205 colon = test system: COLO 205 colon
LOX IMVI melanoma = test system: LOX IMVI melanoma
SW-620 colon = test system: SW-620 colon
SR leukemia = test system: SR leukemia
NCI-H23 lung = test system: NCI-H23 lung
K-562 leukemia = test system: K-562 leukemia
SF-539 CNS = test system: SF-539 CNS
T-47D breast = test system: T-47D breast
HOP-62 NSCLC = test system: HOP-62 NSCLC
PC-3 prostate = test system: PC-3 prostate
M14 melanoma = test system: M14 melanoma
OVCAR-4 ovarian = test system: OVCAR-4 ovarian
HL-60(TB) leukemia = test system: HL-60(TB) leukemia
MCF7 breast = test system: MCF7 breast
MDA-MB-231 breast = test system: MDA-MB-231 breast
A498 renal = test system: A498 renal
OVCAR-3 ovarian = test system: OVCAR-3 ovarian
SK-MEL-28 melanoma = test system: SK-MEL-28 melanoma
CCRF-CEM leukemia = test system: CCRF-CEM leukemia
UACC-62 melanoma = test system: UACC-62 melanoma
NCI-H226 lung = test system: NCI-H226 lung
786-0 renal = test system: 786-0 renal
SF-268 CNS = test system: SF-268 CNS
MALME-3M melanoma = test system: MALME-3M melanoma
EKVX NSCLC = test system: EKVX NSCLC
NCI-H522 lung = test system: NCI-H522 lung
SNB-19 CNS = test system: SNB-19 CNS
MDA-MB-468 breast = test system: MDA-MB-468 breast
SK-OV-3 ovarian = test system: SK-OV-3 ovarian
DU-145 prostate = test system: DU-145 prostate
HT29 colon = test system: HT29 colon
ACHN renal = test system: ACHN renal
TK-10 renal = test system: TK-10 renal
OVCAR-8 ovarian = test system: OVCAR-8 ovarian
OVCAR-5 ovarian = test system: OVCAR-5 ovarian
SN12C renal = test system: SN12C renal
U251 CNS = test system: U251 CNS
HCC-2998 colon = test system: HCC-2998 colon
CAKI-1 renal = test system: CAKI-1 renal
RXF 393 renal = test system: RXF 393 renal
UACC-257 melanoma = test system: UACC-257 melanoma
UO-31 renal = test system: UO-31 renal
HOP-92 NSCLC = test system: HOP-92 NSCLC
SF-295 CNS = test system: SF-295 CNS
IGROV1 ovarian = test system: IGROV1 ovarian
HCT-116 colon = test system: HCT-116 colon
HCT-15 colon = test system: HCT-15 colon
SNB-75 CNS = test system: SNB-75 CNS
NCI-H460 lung = test system: NCI-H460 lung
BT-549 breast = test system: BT-549 breast
MOLT-4 leukemia = test system: MOLT-4 leukemia
HS 578T breast = test system: HS 578T breast
KM12 colon = test system: KM12 colon
SK-MEL-5 melanoma = test system: SK-MEL-5 melanoma

What does the source list for `CCC(C)(C)c1ccc(OCCCCN2CCN(c3ccncc3)CC2)cc1`?
GI50 (RPMI-8226 leukemia): 4.59 µM; TGI (RPMI-8226 leukemia): 24.2 µM; GI50 (MDA-MB-435): 8.9 µM; TGI (MDA-MB-435): 21.1 µM; GI50 (A549 NSCLC): 12.5 µM; TGI (A549 NSCLC): 27.3 µM; GI50 (COLO 205 colon): 2.14 µM; TGI (COLO 205 colon): 4.03 µM; GI50 (LOX IMVI melanoma): 1.9 µM; TGI (LOX IMVI melanoma): 3.64 µM; GI50 (SW-620 colon): 4.82 µM; TGI (SW-620 colon): 18.2 µM; GI50 (SR leukemia): 3.06 µM; TGI (SR leukemia): 10.1 µM; GI50 (NCI-H23 lung): 5.46 µM; TGI (NCI-H23 lung): 18.4 µM; GI50 (K-562 leukemia): 1.98 µM; TGI (K-562 leukemia): 11.2 µM; GI50 (SF-539 CNS): 5.15 µM; TGI (SF-539 CNS): 18.2 µM; GI50 (T-47D breast): 5.27 µM; TGI (T-47D breast): 22.8 µM; GI50 (HOP-62 NSCLC): 12.4 µM; TGI (HOP-62 NSCLC): 27 µM; GI50 (PC-3 prostate): 5.29 µM; TGI (PC-3 prostate): 25.4 µM; GI50 (M14 melanoma): 10.6 µM; TGI (M14 melanoma): 22.8 µM; GI50 (OVCAR-4 ovarian): 11.6 µM; TGI (OVCAR-4 ovarian): 25 µM; GI50 (HL-60(TB) leukemia): 1.93 µM; TGI (HL-60(TB) leukemia): 4.42 µM; GI50 (MCF7 breast): 3.08 µM; TGI (MCF7 breast): 10.7 µM; GI50 (MDA-MB-231 breast): 11 µM; TGI (MDA-MB-231 breast): 23.4 µM; GI50 (A498 renal): 17.3 µM; TGI (A498 renal): 31.7 µM; GI50 (OVCAR-3 ovarian): 11.2 µM; TGI (OVCAR-3 ovarian): 24 µM; GI50 (SK-MEL-28 melanoma): 7.48 µM; TGI (SK-MEL-28 melanoma): 20.3 µM; GI50 (CCRF-CEM leukemia): 6.07 µM; TGI (CCRF-CEM leukemia): 37.7 µM; GI50 (UACC-62 melanoma): 13.5 µM; TGI (UACC-62 melanoma): 26.4 µM; GI50 (NCI-H226 lung): 11.5 µM; TGI (NCI-H226 lung): 25.3 µM; GI50 (786-0 renal): 7.54 µM; TGI (786-0 renal): 20.1 µM; GI50 (SF-268 CNS): 15.3 µM; TGI (SF-268 CNS): 31 µM; GI50 (MALME-3M melanoma): 7.82 µM; TGI (MALME-3M melanoma): 20.5 µM; GI50 (EKVX NSCLC): 7.78 µM; TGI (EKVX NSCLC): 21.6 µM; GI50 (NCI-H522 lung): 15.6 µM; TGI (NCI-H522 lung): 31 µM; GI50 (SNB-19 CNS): 11.3 µM; TGI (SNB-19 CNS): 23.6 µM; GI50 (MDA-MB-468 breast): 2.27 µM; TGI (MDA-MB-468 breast): 5.8 µM; GI50 (SK-OV-3 ovarian): 14.7 µM; TGI (SK-OV-3 ovarian): 29 µM; GI50 (DU-145 prostate): 13.4 µM; TGI (DU-145 prostate): 26.7 µM; GI50 (HT29 colon): 3.45 µM; TGI (HT29 colon): 14 µM; GI50 (ACHN renal): 15 µM; TGI (ACHN renal): 28.3 µM; GI50 (TK-10 renal): 15.9 µM; TGI (TK-10 renal): 29.8 µM; GI50 (OVCAR-8 ovarian): 14.1 µM; TGI (OVCAR-8 ovarian): 32 µM; GI50 (OVCAR-5 ovarian): 12.7 µM; TGI (OVCAR-5 ovarian): 25.2 µM; GI50 (SN12C renal): 13 µM; TGI (SN12C renal): 26 µM; GI50 (U251 CNS): 5.92 µM; TGI (U251 CNS): 19.4 µM; GI50 (HCC-2998 colon): 2.29 µM; TGI (HCC-2998 colon): 5.48 µM; GI50 (CAKI-1 renal): 13.9 µM; TGI (CAKI-1 renal): 27.5 µM; GI50 (RXF 393 renal): 2.77 µM; TGI (RXF 393 renal): 14.6 µM; GI50 (UACC-257 melanoma): 13.4 µM; TGI (UACC-257 melanoma): 27.5 µM; GI50 (UO-31 renal): 12.2 µM; TGI (UO-31 renal): 24.7 µM; GI50 (HOP-92 NSCLC): 1.97 µM; TGI (HOP-92 NSCLC): 15.6 µM; GI50 (SF-295 CNS): 4.02 µM; TGI (SF-295 CNS): 15.3 µM; GI50 (IGROV1 ovarian): 13.7 µM; TGI (IGROV1 ovarian): 27.3 µM; GI50 (HCT-116 colon): 4.65 µM; TGI (HCT-116 colon): 16.3 µM; GI50 (HCT-15 colon): 2.08 µM; TGI (HCT-15 colon): 4.82 µM; GI50 (SNB-75 CNS): 13.4 µM; TGI (SNB-75 CNS): 26.6 µM; GI50 (NCI-H460 lung): 10.1 µM; TGI (NCI-H460 lung): 24 µM; GI50 (BT-549 breast): 5.79 µM; TGI (BT-549 breast): 19.2 µM; GI50 (MOLT-4 leukemia): 4.63 µM; TGI (MOLT-4 leukemia): 24.4 µM; GI50 (HS 578T breast): 13.8 µM; TGI (HS 578T breast): 38.8 µM; GI50 (KM12 colon): 10.8 µM; TGI (KM12 colon): 24.3 µM; GI50 (SK-MEL-5 melanoma): 6.63 µM; TGI (SK-MEL-5 melanoma): 19.3 µM
